In this assay the target is T1, androgen receptor (Homo sapiens, UniProt P10275).
T1 sequence (P10275 1-920 Q868H): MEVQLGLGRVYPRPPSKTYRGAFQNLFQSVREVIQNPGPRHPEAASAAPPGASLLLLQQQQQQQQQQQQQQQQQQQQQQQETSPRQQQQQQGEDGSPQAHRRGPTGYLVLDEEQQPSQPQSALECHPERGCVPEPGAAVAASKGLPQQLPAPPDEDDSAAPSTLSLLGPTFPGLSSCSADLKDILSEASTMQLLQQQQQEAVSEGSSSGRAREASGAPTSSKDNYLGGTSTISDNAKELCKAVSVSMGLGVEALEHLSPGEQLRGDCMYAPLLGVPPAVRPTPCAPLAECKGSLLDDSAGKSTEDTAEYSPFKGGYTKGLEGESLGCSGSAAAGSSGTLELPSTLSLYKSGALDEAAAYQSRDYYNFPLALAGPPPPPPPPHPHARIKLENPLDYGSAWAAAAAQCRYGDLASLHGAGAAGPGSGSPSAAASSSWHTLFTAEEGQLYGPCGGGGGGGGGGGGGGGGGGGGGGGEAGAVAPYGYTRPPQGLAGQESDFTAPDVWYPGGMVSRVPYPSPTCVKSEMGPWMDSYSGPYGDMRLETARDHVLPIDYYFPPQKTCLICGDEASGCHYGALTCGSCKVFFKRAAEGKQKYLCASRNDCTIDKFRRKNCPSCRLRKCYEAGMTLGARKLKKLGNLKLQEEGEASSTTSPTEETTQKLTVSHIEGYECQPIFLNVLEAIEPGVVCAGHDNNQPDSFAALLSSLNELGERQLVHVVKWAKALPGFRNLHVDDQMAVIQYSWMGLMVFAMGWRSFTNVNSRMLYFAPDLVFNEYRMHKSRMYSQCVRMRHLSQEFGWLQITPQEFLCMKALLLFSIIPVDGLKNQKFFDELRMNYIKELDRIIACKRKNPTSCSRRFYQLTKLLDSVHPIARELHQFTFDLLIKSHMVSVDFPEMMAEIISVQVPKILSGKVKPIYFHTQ
Nature of the assay: AR Antagonist Cell Assay (MMTV-luciferase reporter, DHT-stimulated). The note with it: MDA-MB453-MMTV clone 54-19 cells; antagonism of 100 pM DHT, 17 hr, luciferase readout. It is filed as cell-based. The protocol: The compounds ability to antagonize the effects of androgen on the androgen receptor were determined in the protocol described immediately below.
Experimental Procedure for AR Antagonist Cell Assay
Cell line: MDA-MB453-MMTV clone 54–19. This cell line is a stable transfected cell line with MDA-MB453 cell background (human breast tumor cell expressing high level of androgen receptor). A MMTV minimal promoter containing ARE was first cloned in front of a firefly luciferase reporter gene. Then the cascade was cloned into transfection vector pUV120puro. Electroporation method was used for transfecting MDA-MB-453 cell. Puromycin resistant stable cell line was selected.
Cell Culture Media and Reagents:
Culture medium: DMEM (high glucose, Gibco cat #: 11960-044), 10% FBS, and 1% L-glutamine
Plating medium: DMEM (phenol red free), 10% charcoal treated HyClone serum, 1% L-glutamine
Assay medium: DMEM (phenol red free), 1% charcoal treated HyClone serum, 1% L-glutamine, and 1% penicillin/streptomycin
3× luciferase buffer: 2% beta-mercaptoethanol, 0.6% ATP, 0.0135% luciferine in cell lysis buffer
• 1. Cells are maintained in culture medium, splitting cells when they reach 80–90% confluence • 2. To test compounds, 10,000 cells/well are plated to opaque 96 cell culture plate in 100 ul/well plating medium, culture for overnight at 37° C. in cell culture incubator • 3. Carefully remove plating medium, then add 80 ul/well of pre-warmed assay medium, add 10 ul/well testing compound (final concentration at 10 uM or 1 uM), incubate at 37° C. for 30 minutes • 4. Add 10 ul/well freshly prepared DHT (final concentration at 100 pM) to each well, incubate at 37° C. for 17 hr (overnight) • 5. Add 50 ul/well 3× luciferase buffer, incubate at room temperature for 5 minutes, then count on Luminometer.
The fold induction over background by 100 pM DHT in the absence of testing compounds is standardized as 100% and experimental result is expressed as percentage of inhibition by testing compounds.
On the technique in general: In a reporter assay the amount or activity of a reporter protein is the signal.
In general, IC50 refers to the point on the concentration scale where inhibition reaches its midpoint. A lower IC50 goes with greater potency. Molecule `O=c1cc(C(F)(F)F)c2cc(Cc3ccc(S(=O)(=O)NCCCCc4ccccc4)cc3)ccc2[nH]1` [Example 70, 4-(2-Oxo-4-trifluoromethyl-1,2-dihydroquinolin-6-ylmethyl)-N-(4-phenylbutyl)-benzenesulfonamide] registered a 50% inhibitory concentration (IC50) of more than 10 µM.
Under `O=c1cc(C(F)(F)F)c2cc(Cc3ccc(S(=O)(=O)Nc4ccccc4N4CCCCC4)cc3)ccc2o1` [Example 146, 4-(2-Oxo-4-trifluoromethyl-2H-chromen-6-ylmethyl)-N-(2-piperidin-1-ylphenyl)-benzenesulfonamide] stands 4.82 µM.
Under `O=c1cc(C(F)(F)F)c2cc(Cc3ccc(S(=O)(=O)Nc4ccc(CCO)cc4)cc3)ccc2o1` [Example 151, N-[4-(2-Hydroxyethyl)phenyl]-4-(2-oxo-4-trifluoromethyl-2H-chromen-6-ylmethyl)-benzenesulfonamide] stands 1.75 µM; under `O=c1cc(C(F)(F)F)c2cc(Cc3ccc(S(=O)(=O)Nc4cccc(OCc5ccccc5)c4)cc3)ccc2[nH]1` [Example 44, N-(3-Benzyloxyphenyl)-4-(2-oxo-4-trifluoromethyl-1,2-dihydroquinolin-6-ylmethyl)-benzenesulfonamide], 2.8 µM.
For `Cc1ccc(F)cc1NS(=O)(=O)c1ccc(Cc2ccc3[nH]c(=O)cc(C(F)(F)F)c3c2)cc1` [Example 25], the IC50 came out at 1.12 µM.
Under `CSc1n[nH]c(NS(=O)(=O)c2ccc(Cc3ccc4[nH]c(=O)cc(C(F)(F)F)c4c3)cc2)c1C#N` [Example 32, N-(4-Cyano-5-methylsulfanyl-2H-pyrazol-3-yl)-4-(2-oxo-4-trifluoromethyl-1,2-dihydroquinolin-6-ylmethyl)-benzenesulfonamide] stands 8.02 µM; under `O=c1cc(C(F)(F)F)c2cc(Cc3ccc(S(=O)(=O)Nc4ccc5ncccc5c4)cc3)ccc2o1` [Example 125, 4-(2-Oxo-4-trifluoromethyl-2H-chromen-6-ylmethyl)-N-quinolin-6-ylbenzenesulfonamide], more than 10 µM.
`COc1ccccc1CCNS(=O)(=O)c1ccc(Cc2ccc3oc(=O)cc(C(F)(F)F)c3c2)cc1` [Example 190, N-[2-(2-Methoxyphenyl)ethyl]-4-(2-oxo-4-trifluoromethyl-2H-chromen-6-ylmethyl)benzenesulfonamide] had an IC50 of 5.41 µM.
In the case of `O=c1cc(C(F)(F)F)c2cc(Cc3ccc(S(=O)(=O)Nc4cccc(Cc5ccccc5)c4)cc3)ccc2o1` [Example 149, N-(3-Benzylphenyl)-4-(2-oxo-4-trifluoromethyl-2H-chromen-6-ylmethyl)benzenesulfonamide], the midpoint of inhibition, the IC50, lay at 4.74 µM. This IC50 and that of the molecule before are within 1.5-fold of each other.
Next, `O=c1cc(C(F)(F)F)c2cc(Cc3ccc(S(=O)(=O)Nc4cc(-c5ccccc5)n[nH]4)cc3)ccc2[nH]1` [Example 37, 4-(2-Oxo-4-trifluoromethyl-1,2-dihydroquinolin-6-ylmethyl)-N-(5-phenyl-2H-pyrazol-3-yl)-benzenesulfonamide]: more than 10 µM; `O=c1cc(C(F)(F)F)c2cc(Cc3ccc(S(=O)(=O)NC4CCC(O)CC4)cc3)ccc2o1` (stereo not drawn) [Example 193, N-(4-Hydroxycyclohexyl)-4-(2-oxo-4-trifluoromethyl-2H-chromen-6-ylmethyl)benzenesulfonamide]: 9.11 µM; `O=c1cc(C(F)(F)F)c2cc(Cc3ccc(S(=O)(=O)N(CCO)Cc4ccccc4)cc3)ccc2o1` [Example 103, N-Benzyl-N-(2-hydroxyethyl)-4-(2-oxo-4-trifluoromethyl-2H-chromen-6-ylmethyl)-benzenesulfonamide]: approximately 10 µM.
Under `O=c1cc(C(F)(F)F)c2cc(Cc3ccc(S(=O)(=O)NCc4cc(Cl)ccc4F)cc3)ccc2[nH]1` [Example 76, N-(5-Chloro-2-fluorobenzyl)-4-(2-oxo-4-trifluoromethyl-1,2-dihydroquinolin-6-ylmethyl)-benzenesulfonamide] stands more than 10 µM.
Next, `O=c1cc(C(F)(F)F)c2cc(Cc3ccc(S(=O)(=O)Nc4ccc(Cl)cc4)cc3)ccc2o1` [Example 135, N-(4-Chlorophenyl)-4-(2-oxo-4-trifluoromethyl-2H-chromen-6-ylmethyl)benzenesulfonamide]: 2.01 µM; `O=c1cc(C(F)(F)F)c2cc(Cc3ccc(S(=O)(=O)Nc4ccc(-n5ccc(C(F)(F)F)n5)cc4)cc3)ccc2[nH]1` [Example 49, 4-(2-Oxo-4-trifluoromethyl-1,2-dihydroquinolin-6-ylmethyl)-N-[4-(3-trifluoromethylpyrazol-1-yl)phenyl]-benzenesulfonamide]: more than 10 µM; `Cc1ccc(CNS(=O)(=O)c2ccc(Cc3ccc4[nH]c(=O)cc(C(F)(F)F)c4c3)cc2)o1` [Example 55, N-(5-Methylfuran-2-ylmethyl)-4-(2-oxo-4-trifluoromethyl-1,2-dihydroquinolin-6-ylmethyl)-benzenesulfonamide]: more than 10 µM.
`O=c1cc(C(F)(F)F)c2cc(Cc3ccc(S(=O)(=O)Nc4ccc5c(c4)CCC5)cc3)ccc2[nH]1` [Example 20, N-Indan-5-yl-4-(2-oxo-4-trifluoromethyl-1,2-dihydroquinolin-6-ylmethyl)-benzenesulfonamide] gave a half-inhibitory concentration (IC50) of more than 10 µM.
Next, `Cc1ccc(CNS(=O)(=O)c2ccc(Cc3ccc4oc(=O)cc(C(F)(F)F)c4c3)cc2)c(F)c1F` [Example 197, N-(2,3-Difluoro-4-methylbenzyl)-4-(2-oxo-4-trifluoromethyl-2H-chromen-6-ylmethyl)benzenesulfonamide]: 1.94 µM; `O=c1cc(C(F)(F)F)c2cc(Cc3ccc(S(=O)(=O)NCc4cccc(Cl)c4F)cc3)ccc2[nH]1` [Example 77, N-(3-Chloro-2-fluorobenzyl)-4-(2-oxo-4-trifluoromethyl-1,2-dihydroquinolin-6-ylmethyl)-benzenesulfonamide]: more than 10 µM.
Next, `O=c1cc(C(F)(F)F)c2cc(Cc3ccc(S(=O)(=O)NC(CCO)c4ccccc4)cc3)ccc2o1` (stereo not drawn) [Example 192, N-(3-Hydroxy-1-phenylpropyl)-4-(2-oxo-4-trifluoromethyl-2H-chromen-6-ylmethyl)benzenesulfonamide]: 6.52 µM.
For the molecule `CSc1ccccc1CNS(=O)(=O)c1ccc(Cc2ccc3oc(=O)cc(C(F)(F)F)c3c2)cc1` [Example 194, N-(2-Methylsulfanylbenzyl)-4-(2-oxo-4-trifluoromethyl-2H-chromen-6-ylmethyl)benzenesulfonamide], the IC50 stood at 8 µM.
Next, `O=c1cc(C(F)(F)F)c2cc(Cc3ccc(S(=O)(=O)NCCc4c[nH]c5ccccc45)cc3)ccc2[nH]1` [Example 79, N-[2-(1H-Indol-3-yl)ethyl]-4-(2-oxo-4-trifluoromethyl-1,2-dihydroquinolin-6-ylmethyl)-benzenesulfonamide]: 10.3 µM; `CN(CCc1ccccn1)S(=O)(=O)c1ccc(Cc2ccc3[nH]c(=O)cc(C(F)(F)F)c3c2)cc1` [Example 13, N-Methyl-4-(2-oxo-4-trifluoromethyl-1,2-dihydroquinolin-6-ylmethyl)-N-(2-pyridin-2-ylethyl)benzenesulfonamide]: more than 10 µM; `O=C1CCCN1CCCNS(=O)(=O)c1ccc(Cc2ccc3oc(=O)cc(C(F)(F)F)c3c2)cc1` [Example 187, N-[3-(2-Oxopyrrolidin-1-yl)propyl]-4-(2-oxo-4-trifluoromethyl-2H-chromen-6-ylmethyl)benzenesulfonamide]: 3.44 µM.

The record behind these values is patent US7098340B2, “Benzyl sulfonamide derivatives” (Warner Lambert Company LLC, priority 2003, dated 2006).
